ChEMBL document CHEMBL4507291 (2021)

Assays:
[1] = system: Proto-oncogene tyrosine-protein kinase receptor Ret (Homo sapiens), P07949 [V804L]
[2] = molecular target: Serine/threonine-protein kinase RIO2 (Homo sapiens) (UniProt Q9BVS4)
[3] = molecular target: T1, Muscarinic acetylcholine receptor M4 (Homo sapiens) (UniProt P08173); conditions: Compound concentration 10.0 uM
T1 sequence (whole entry): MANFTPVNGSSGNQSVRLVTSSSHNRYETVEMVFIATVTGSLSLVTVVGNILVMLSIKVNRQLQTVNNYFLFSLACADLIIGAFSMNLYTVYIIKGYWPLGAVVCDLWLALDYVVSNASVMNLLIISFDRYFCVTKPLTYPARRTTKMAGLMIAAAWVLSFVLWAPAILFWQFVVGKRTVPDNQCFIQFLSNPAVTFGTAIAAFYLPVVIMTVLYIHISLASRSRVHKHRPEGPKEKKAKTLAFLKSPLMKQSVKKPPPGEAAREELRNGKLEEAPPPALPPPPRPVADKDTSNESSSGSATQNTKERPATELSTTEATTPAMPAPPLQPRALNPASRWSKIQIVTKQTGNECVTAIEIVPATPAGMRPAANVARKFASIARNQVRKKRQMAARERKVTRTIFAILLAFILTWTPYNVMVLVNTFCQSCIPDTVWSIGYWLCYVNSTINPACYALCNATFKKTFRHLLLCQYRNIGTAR

[4] = molecular target: Angiopoietin-1 receptor (Homo sapiens) (UniProt Q02763)
Sequence of Angiopoietin-1 receptor (Homo sapiens) (Q02763 whole entry): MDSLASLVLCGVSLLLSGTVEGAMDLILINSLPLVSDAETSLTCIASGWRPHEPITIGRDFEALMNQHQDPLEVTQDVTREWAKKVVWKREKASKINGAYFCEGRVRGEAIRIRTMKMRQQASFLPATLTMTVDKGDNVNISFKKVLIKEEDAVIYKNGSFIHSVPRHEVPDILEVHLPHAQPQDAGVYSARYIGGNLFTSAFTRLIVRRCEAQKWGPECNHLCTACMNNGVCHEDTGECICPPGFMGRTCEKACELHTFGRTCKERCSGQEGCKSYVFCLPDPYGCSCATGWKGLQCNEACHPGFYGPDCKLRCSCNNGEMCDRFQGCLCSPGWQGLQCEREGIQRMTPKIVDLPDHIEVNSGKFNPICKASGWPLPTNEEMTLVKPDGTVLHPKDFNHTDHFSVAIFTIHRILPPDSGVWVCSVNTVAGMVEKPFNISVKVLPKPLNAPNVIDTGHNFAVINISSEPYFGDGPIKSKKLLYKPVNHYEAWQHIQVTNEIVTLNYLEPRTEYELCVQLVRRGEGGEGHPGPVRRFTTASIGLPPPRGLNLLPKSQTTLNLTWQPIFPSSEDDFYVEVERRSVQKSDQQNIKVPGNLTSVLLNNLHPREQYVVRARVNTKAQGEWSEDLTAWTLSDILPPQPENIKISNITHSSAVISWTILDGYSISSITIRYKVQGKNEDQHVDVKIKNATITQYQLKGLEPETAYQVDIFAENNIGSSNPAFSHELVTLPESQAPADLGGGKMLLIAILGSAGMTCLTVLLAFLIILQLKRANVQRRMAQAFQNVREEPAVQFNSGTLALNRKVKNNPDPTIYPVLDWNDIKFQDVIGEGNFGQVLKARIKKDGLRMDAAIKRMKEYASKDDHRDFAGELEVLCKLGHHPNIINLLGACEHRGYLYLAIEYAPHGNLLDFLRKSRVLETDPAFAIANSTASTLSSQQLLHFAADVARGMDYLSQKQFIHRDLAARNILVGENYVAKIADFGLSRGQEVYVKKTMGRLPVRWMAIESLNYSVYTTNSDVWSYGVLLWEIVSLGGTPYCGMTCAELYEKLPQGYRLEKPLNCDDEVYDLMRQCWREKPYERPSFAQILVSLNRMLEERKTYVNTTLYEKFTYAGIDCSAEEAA

[5] = molecular target: BDNF/NT-3 growth factors receptor (Homo sapiens) (UniProt Q16620)
Sequence of BDNF/NT-3 growth factors receptor (Homo sapiens) (Q16620 32-822 limits assumed): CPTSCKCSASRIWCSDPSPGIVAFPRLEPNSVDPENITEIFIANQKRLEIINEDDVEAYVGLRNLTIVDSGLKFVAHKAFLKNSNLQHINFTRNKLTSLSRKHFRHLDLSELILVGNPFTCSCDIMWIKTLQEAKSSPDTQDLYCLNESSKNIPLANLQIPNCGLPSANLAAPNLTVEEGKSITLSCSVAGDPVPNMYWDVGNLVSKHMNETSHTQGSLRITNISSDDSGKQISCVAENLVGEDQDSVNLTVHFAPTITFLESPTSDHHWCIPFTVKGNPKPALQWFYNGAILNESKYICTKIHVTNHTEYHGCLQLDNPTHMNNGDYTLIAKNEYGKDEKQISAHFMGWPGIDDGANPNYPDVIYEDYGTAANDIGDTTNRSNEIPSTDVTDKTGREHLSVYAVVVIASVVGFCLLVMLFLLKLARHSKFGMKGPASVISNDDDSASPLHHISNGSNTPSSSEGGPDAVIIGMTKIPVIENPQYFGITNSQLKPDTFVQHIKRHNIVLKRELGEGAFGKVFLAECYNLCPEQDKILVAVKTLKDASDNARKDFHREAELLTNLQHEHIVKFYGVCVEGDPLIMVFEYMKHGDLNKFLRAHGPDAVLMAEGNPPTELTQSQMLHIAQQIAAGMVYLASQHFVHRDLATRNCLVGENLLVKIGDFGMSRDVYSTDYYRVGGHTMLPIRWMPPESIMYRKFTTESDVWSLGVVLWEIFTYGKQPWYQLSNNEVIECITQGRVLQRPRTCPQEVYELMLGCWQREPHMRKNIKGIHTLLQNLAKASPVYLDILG

[6] = molecular target: Serine/threonine-protein kinase 38-like (Homo sapiens) (UniProt Q9Y2H1)
[7] = molecular target: T2, Aurora kinase A (Homo sapiens) (UniProt O14965)
T2 sequence (whole entry): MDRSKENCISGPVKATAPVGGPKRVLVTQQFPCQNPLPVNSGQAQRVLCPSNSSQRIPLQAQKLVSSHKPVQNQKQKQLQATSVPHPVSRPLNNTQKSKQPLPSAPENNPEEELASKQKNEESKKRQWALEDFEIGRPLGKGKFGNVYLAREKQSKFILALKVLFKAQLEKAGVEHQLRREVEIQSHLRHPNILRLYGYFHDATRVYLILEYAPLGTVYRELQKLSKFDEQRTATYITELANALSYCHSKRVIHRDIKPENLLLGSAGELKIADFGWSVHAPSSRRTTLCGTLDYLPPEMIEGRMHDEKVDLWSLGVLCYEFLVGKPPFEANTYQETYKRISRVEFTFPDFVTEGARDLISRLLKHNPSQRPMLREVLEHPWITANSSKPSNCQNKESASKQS

[8] = system: ALK tyrosine kinase receptor (Homo sapiens), Q9UM73 [L1196M]
[9] = molecular target: Dual specificity protein kinase CLK3 (Homo sapiens) (UniProt P49761)
Sequence of Dual specificity protein kinase CLK3 (Homo sapiens) (P49761 whole entry, looked up): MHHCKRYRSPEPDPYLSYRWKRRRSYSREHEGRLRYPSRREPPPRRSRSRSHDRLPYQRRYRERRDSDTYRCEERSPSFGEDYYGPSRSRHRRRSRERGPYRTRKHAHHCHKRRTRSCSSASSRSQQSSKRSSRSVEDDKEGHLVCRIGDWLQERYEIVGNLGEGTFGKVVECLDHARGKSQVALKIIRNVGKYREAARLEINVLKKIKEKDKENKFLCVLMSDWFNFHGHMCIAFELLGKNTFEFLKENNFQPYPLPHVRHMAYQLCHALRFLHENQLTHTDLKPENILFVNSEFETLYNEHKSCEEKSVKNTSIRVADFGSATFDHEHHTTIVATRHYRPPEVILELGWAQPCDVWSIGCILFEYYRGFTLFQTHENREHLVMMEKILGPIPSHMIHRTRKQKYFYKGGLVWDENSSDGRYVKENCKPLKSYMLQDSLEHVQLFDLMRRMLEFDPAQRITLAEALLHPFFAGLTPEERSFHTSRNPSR

[10] = molecular target: T3, Alpha-1A adrenergic receptor (Homo sapiens) (UniProt P35348); conditions: Compound concentration 10.0 uM
T3 sequence (whole entry): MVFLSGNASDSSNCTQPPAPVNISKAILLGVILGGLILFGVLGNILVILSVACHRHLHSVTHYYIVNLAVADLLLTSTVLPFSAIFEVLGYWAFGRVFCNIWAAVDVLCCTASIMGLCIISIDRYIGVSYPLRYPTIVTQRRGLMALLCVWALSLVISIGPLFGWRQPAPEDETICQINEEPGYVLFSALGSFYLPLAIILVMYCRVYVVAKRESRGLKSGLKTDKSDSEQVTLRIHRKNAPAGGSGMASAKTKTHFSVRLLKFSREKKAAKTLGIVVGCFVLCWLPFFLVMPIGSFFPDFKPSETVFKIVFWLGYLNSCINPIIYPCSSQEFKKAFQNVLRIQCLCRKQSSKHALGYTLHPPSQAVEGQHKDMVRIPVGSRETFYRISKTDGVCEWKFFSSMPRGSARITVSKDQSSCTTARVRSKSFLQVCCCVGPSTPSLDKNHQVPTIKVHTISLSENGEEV

[11] = molecular target: Serine/threonine-protein kinase SIK1 (Homo sapiens) (UniProt P57059)
[12] = molecular target: Receptor-interacting serine/threonine-protein kinase 1 (Homo sapiens) (UniProt Q13546)
[13] = molecular target: T4, Tyrosine-protein kinase Tec (Homo sapiens) (UniProt P42680)
T4 sequence (whole entry): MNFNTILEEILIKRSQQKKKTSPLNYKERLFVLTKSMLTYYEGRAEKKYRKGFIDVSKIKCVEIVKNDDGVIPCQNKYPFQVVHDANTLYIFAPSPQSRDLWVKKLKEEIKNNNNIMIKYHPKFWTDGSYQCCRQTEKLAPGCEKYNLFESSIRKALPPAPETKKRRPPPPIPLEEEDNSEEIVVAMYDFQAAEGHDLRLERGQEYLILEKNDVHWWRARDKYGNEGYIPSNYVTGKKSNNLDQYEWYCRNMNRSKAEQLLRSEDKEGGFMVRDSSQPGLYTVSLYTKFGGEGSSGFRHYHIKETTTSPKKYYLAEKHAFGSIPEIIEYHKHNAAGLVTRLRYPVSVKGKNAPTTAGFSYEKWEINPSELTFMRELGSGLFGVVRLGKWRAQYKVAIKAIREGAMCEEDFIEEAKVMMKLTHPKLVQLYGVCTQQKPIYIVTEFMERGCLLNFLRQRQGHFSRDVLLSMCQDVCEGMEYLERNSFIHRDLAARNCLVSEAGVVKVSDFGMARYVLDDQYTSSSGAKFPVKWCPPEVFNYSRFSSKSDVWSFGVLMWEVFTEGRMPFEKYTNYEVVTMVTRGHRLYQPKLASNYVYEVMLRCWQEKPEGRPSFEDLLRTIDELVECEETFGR

[14] = molecular target: Casein kinase II subunit alpha' (Homo sapiens) (UniProt P19784)
Sequence of Casein kinase II subunit alpha' (Homo sapiens) (P19784 whole entry, looked up): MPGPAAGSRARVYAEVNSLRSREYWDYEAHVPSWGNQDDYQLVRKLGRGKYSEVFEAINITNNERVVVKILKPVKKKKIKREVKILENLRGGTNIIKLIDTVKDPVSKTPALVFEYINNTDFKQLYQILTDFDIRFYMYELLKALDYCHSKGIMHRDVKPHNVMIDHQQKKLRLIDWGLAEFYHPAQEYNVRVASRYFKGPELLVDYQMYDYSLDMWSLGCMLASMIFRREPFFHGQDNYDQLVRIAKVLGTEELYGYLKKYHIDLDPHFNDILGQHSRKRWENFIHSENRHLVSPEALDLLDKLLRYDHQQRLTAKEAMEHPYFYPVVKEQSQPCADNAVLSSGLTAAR

[15] = molecular target: Cyclin-dependent kinase 7 (Homo sapiens) (UniProt P50613)
Sequence of Cyclin-dependent kinase 7 (Homo sapiens) (P50613 whole entry): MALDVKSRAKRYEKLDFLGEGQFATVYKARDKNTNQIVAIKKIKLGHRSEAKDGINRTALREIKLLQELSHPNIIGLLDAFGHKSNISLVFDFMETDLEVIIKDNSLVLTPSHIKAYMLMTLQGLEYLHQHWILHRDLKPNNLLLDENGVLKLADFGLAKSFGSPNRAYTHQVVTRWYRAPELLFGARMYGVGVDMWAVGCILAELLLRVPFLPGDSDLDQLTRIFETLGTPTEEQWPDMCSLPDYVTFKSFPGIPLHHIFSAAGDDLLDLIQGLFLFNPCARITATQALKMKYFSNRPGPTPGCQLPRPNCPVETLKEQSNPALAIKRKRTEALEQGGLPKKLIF

[16] = system: Hepatocyte growth factor receptor (Homo sapiens), P08581 [M1250T]
[17] = molecular target: Ribosomal protein S6 kinase alpha-1 (Homo sapiens) (UniProt Q15418)
[18] = molecular target: Serine/threonine-protein kinase 26 (Homo sapiens) (UniProt Q9P289)
[19] = molecular target: Serine/threonine-protein kinase MARK1 (Homo sapiens) (UniProt Q9P0L2)
[20] = Compound concentration 1000.0 nM
[21] = Compound concentration 100.0 nM

Sequence of Proto-oncogene tyrosine-protein kinase receptor Ret (Homo sapiens), P07949 [V804L] (P07949 whole entry V804L): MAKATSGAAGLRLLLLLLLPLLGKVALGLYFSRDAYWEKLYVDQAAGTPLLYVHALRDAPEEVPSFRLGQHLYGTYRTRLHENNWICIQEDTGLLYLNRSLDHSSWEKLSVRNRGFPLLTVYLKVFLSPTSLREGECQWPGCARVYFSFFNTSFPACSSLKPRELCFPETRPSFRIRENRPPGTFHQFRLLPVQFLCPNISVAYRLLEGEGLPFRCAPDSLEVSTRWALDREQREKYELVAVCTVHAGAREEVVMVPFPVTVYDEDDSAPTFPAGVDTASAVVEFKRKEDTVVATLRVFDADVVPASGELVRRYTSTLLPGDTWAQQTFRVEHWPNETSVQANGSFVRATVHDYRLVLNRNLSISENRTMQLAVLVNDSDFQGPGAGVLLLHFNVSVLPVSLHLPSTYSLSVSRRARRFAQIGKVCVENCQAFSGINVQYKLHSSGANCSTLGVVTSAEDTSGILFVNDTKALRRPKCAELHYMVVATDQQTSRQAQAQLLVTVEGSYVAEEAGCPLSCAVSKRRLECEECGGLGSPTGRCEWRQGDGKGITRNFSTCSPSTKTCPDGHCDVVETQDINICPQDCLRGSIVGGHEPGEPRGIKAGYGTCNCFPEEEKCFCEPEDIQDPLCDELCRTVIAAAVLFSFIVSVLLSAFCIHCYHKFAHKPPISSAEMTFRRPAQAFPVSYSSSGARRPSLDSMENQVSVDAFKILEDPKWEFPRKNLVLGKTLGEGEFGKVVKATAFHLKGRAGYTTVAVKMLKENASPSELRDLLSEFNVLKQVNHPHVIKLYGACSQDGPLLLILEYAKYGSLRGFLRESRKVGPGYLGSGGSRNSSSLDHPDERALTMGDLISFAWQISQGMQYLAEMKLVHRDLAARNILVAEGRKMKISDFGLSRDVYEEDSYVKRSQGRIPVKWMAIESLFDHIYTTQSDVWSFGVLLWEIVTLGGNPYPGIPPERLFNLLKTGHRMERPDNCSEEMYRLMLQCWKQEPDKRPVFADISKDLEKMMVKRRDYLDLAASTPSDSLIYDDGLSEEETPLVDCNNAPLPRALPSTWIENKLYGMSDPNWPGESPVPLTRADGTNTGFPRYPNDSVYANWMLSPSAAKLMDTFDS
Sequence of Serine/threonine-protein kinase RIO2 (Homo sapiens) (Q9BVS4 whole entry, looked up): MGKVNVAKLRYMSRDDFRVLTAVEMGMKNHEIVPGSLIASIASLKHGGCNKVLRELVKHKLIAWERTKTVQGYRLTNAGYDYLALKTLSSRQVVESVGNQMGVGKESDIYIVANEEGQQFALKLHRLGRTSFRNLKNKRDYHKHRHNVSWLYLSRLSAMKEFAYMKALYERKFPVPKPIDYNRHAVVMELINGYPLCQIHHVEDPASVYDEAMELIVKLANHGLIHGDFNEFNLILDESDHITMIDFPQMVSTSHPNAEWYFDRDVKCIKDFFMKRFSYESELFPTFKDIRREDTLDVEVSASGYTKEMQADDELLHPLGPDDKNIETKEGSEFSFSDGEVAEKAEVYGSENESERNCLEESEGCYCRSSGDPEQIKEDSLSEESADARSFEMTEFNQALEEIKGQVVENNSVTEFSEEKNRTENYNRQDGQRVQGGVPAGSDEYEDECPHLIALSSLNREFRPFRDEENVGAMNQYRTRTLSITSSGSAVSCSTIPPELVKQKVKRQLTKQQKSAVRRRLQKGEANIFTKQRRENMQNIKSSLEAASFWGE

C[C@@H]1CN(c2cc(-c3nn(C)c4ccc(OC5(C)CC5)cc34)ncn2)C[C@H](C)O1 [MLi-2-NC]
inactive: residual activity [1, 20] 72% | residual activity [2, 20] 100% | inhibition [3] 10.6% | residual activity [4, 20] 94% | residual activity [5, 20] 65% | residual activity [6, 20] 72% | residual activity [7, 20] 100% | residual activity [8, 20] 98% | residual activity [9, 20] 98% | inhibition [10] -3.6% | residual activity [11, 20] 96% | residual activity [12, 20] 98% | residual activity [13, 20] 100% | residual activity [14, 20] 86% | residual activity [15, 20] 100% | residual activity [16, 20] 93% | residual activity [17, 20] 100% | residual activity [18, 20] 74% | residual activity [19, 20] 100%

C[C@@H]1CN(c2cc(-c3n[nH]c4ccc(OC5(C)CC5)cc34)ncn2)C[C@H](C)O1 [MLi-2]
inactive: residual activity [1, 21] 98% | residual activity [2, 21] 68% | inhibition [3] -4.79% | residual activity [4, 21] 100% | residual activity [5, 21] 67% | residual activity [6, 21] 85% | residual activity [7, 21] 94% | residual activity [8, 21] 78% | residual activity [9, 21] 94% | inhibition [10] 3.49% | residual activity [11, 21] 100% | residual activity [12, 21] 100% | residual activity [13, 21] 74% | residual activity [14, 21] 100% | residual activity [15, 21] 56% | residual activity [16, 21] 79% | residual activity [17, 21] 93% | residual activity [18, 21] 76% | residual activity [19, 21] 100%
